{
  "source": "paper PMC3696110",
  "about": "“Hsp70 Oligomerization Is Mediated by an Interaction between the Interdomain Linker and the Substrate-Binding Domain” (PLoS ONE, 2013)",
  "key": {"[1]": {"system": "refolded SBD641", "assay": "Fluorescence titration of dansyl-NR peptide binding, refolded protein", "parameters": "species or system human", "conditions": "refolded vs native SBD641, fluorescence titration", "experimental": "The interaction between the different Hsp70 variants and the NR peptide was studied in 50 mM Tris buffer at pH 7.4, with 150 mM KCl, and 5 mM MgCl2 using fluorescence spectroscopy by titrating different concentrations of chaperone into a solution containing 2 µM dansyl-NR peptide (N-terminally labeled; Genemed Synthesis Inc., San Antonio, TX, USA) after incubating the mixtures for 1 h at 25°C. The concentration of dansyl-NR peptide was calculated using an extinction coefficient at 327 nm of 4300 M^-1.cm^-1 [39]. The fluorescence emission spectrum of each sample was recorded from 400 to 630 nm after excitation at 330 nm, and the data reported correspond to the average intensity at the maximum emission wavelength of two different samples for which ten spectra were recorded. The increase in fluorescence signal was plotted as a function of chaperone concentration (Figure S2), and analyzed assuming single-site binding using the following equation:\nΔF=ΔFmaxΘL=ΔFmax/2LT[(PT+LT+Kd)−(PT+LT+Kd)^2−4PTLT] (1)\nwhere ΘL is the fraction of bound ligand, ΔF is the increase in fluorescence intensity observed at a given concentration of Hsp70 variant, ΔF max is the increase in fluorescence at saturation, L T and P T are the total ligand and protein concentration respectively, and K d is the apparent dissociation constant of the complex. […]"}, "[2]": {"assay": "SEC/DLS of oligomeric species", "type": "physicochemical, human", "conditions": "SEC, 20 µM SBD641", "experimental": "Analytical SEC was performed at 4 °C using a Superdex 75 10/300 GL column (GE Healthcare LifeSciences, Little Chalfont, U.K.), which had previously been calibrated using a mixture of standard proteins (Gel Filtration LMW Calibration Kit; GE Healthcare LifeSciences, Little Chalfont, U.K.). Typically, samples of the various constructs contained 70 µM of protein in 50 mM Tris buffer at pH 7.4, with 150 mM KCl, 5 mM MgCl2 and were incubated for 15 min (unless otherwise specified) at room temperature before being loaded onto the column for analysis. To evaluate the reversibility of the oligomerization process, the different elution peaks obtained for each protein variant were subsequently analyzed after concentrating the different fractions using AmiconUltra-0.5, Ultracel-3 Membrane, 3 kDa (Millipore, Bedford, MA, USA). […]\nDynamic light scattering. Representative size distributions of SBD641 at different protein concentrations in Tris 50 mM, pH 7.4, 150 mM KCl, 5 mM MgCl2 were recorded at 25 °C on the Zetasizer Nano ZS instrument (Malvern Instruments Ltd.) at 633 nm after 1 h of incubation at room temperature. […] Some samples were analyzed after 1 h and 4 h incubation at room temperature and the same intensity size distributions were obtained. The samples were centrifuged for 15 min at 13200 rpm to remove dust particles and the scattered light was detected at an angle of 173°. […]"}},
  "data": [
    {"substance": "SBD641: truncated human Hsp70 (384-641), full-length SBD with interdomain linker", "values": [
      {"measurement": "Affinity of refolded SBD641 for substrate", "setting": "[1]", "value": "same affinity as the native protein"},
      {"measurement": "Oligomer fraction, no NR peptide", "setting": "[2]", "value": "ca. 0.7"}
    ]}
  ]
}
